Measured values from US11229623B2 (GlaxoSmithKline Intellectual Property (No.2) Limited, priority 2016, dated 2022).

target: T1, human TRPV4 (Homo sapiens, UniProt Q9HBA0); assay: FLIPR assay for hTRPV4 expressed in BHK cells: inhibition of Agonist Compound-induced calcium signal; type: cell-based; conditions: IC50, hTRPV4 in BHK/AC9 cells, FLIPR calcium signal, agonist at EC80; reported as range class
T1 construct: expressed in transfected cells; host or cells: BHK/AC9 cells transduced with BacMam virus
Procedure: FLIPR Assay for hTRPV4 Expressed in BHK Cells:
TRPV4 channel activation results in an influx of divalent and monovalent cations including calcium. The resulting changes in intracellular calcium were monitored using a calcium specific fluorescent dye Fluo-4 (MDS Analytical Technologies). BHK/AC9 cells transduced with BacMam virus expressing the human TRPV4 gene at a MOI of 78 were plated in a 384 well poly-D lysine coated plate (15,000 cells/well in 50 μL culture medium containing DMEM/F12 with 15 mM HEPES, 10% FBS, 1% Penicillin-Streptomycin and 1% L-glutamine). Cells were incubated for 24 hours at 37° C. and 5% CO2. Culture medium was then aspirated using a Tecan plate-washer and replaced with 20 μL/well of dye loading buffer: HBSS, 500 μM Brilliant Black (MDS Analytical Technologies), and 2 μM Fluo-4 AM. Dye loaded plates were then incubated in the dark at room temperature for 1-1.5 hours.

T1 sequence (Q9HBA0 whole entry): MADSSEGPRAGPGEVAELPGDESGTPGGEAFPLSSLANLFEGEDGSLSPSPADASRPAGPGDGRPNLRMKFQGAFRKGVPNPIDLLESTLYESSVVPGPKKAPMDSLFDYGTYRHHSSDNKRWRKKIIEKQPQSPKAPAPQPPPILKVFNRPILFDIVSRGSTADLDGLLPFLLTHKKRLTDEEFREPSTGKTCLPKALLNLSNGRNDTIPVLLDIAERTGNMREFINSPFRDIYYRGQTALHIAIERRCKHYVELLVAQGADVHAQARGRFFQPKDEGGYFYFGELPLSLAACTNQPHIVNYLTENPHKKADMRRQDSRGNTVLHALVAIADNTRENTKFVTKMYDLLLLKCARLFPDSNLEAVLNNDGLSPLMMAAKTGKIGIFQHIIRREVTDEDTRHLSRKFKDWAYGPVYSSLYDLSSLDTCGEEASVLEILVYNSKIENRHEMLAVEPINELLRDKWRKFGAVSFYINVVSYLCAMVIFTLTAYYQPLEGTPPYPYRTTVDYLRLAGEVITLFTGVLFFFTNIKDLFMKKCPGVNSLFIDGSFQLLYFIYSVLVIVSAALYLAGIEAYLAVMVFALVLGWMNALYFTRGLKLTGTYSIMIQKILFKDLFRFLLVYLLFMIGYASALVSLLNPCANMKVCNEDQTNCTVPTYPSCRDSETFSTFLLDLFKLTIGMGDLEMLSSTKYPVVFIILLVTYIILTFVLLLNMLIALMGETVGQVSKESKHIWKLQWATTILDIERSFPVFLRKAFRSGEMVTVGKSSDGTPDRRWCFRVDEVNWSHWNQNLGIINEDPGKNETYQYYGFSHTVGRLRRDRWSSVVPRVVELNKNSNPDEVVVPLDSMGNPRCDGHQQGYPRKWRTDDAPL

| SMILES | IC50 [nM] |
| --- | --- |
| C[Si](C)(C)C#Cc1ccc(S(=O)(=O)N2C[C@H](Oc3ccc(C#N)c(F)c3)[C@](O)(CO)C2)c(C#N)c1 [Example 221, 4-(((3S,4R)-1-((2-cyano-4-((trimethylsilyl)ethynyl)phenyl)sulfonyl)-4-hydroxy-4-(hydroxymethyl)pyrrolidin-3-yl)oxy)-2-fluorobenzonitrile] | 0.1 to 10 |

same assay, conditions: hTRPV4 in BHK/AC9 cells, FLIPR calcium signal, agonist at EC80; reported as range class; read-out: IC50

| SMILES | IC50 [nM] |
| --- | --- |
| N#Cc1cc(C(F)(F)F)ccc1S(=O)(=O)N1C[C@H](Oc2ccc(Cl)c(F)c2)[C@](O)(CO)C1 [Example 30, 2-(((3R,4S)-4-(4-chloro-3-fluorophenoxy)-3-hydroxy-3-(hydroxymethyl)pyrrolidin-1-yl)sulfonyl)-5-(trifluoromethyl)benzonitrile] | 0.1 to 10 |
| N#Cc1ccc(O[C@H]2CN(S(=O)(=O)c3ccc(C(F)(F)F)cc3C#N)C[C@@]2(O)CO)c(F)c1 [Example 9, 2-(((3R,4S)-4-(4-cyano-2-fluorophenoxy)-3-hydroxy-3-(hydroxymethyl)pyrrolidin-1-yl)sulfonyl)-5-(trifluoromethyl)benzonitrile] | 0.1 to 10 |
| CC(C)COc1cc(C#N)c(F)cc1O[C@H]1CN(S(=O)(=O)c2ccc(C(F)(F)F)cc2C#N)C[C@@]1(O)CO [Example 165, 4-(((3S,4R)-1-((2-cyano-4-(trifluoromethyl)phenyl)sulfonyl)-4-hydroxy-4-(hydroxymethyl)pyrrolidin-3-yl)oxy)-2-fluoro-5-isobutoxybenzonitrile] | 0.1 to 10 |
| N#Cc1cc(C(F)(F)F)ccc1S(=O)(=O)N1C[C@H](Oc2ccc(C(F)(F)F)c(F)c2)[C@](O)(CO)C1 [Example 31, 2-(((3R,4S)-4-(3-fluoro-4-(trifluoromethyl)phenoxy)-3-hydroxy-3-(hydroxymethyl)pyrrolidin-1-yl)sulfonyl)-5-(trifluoromethyl)benzonitrile] | 0.1 to 10 |
| N#Cc1ccc(O[C@H]2CN(S(=O)(=O)c3ccc(Cl)cn3)C[C@@]2(O)CO)cc1F [Example 58, 4-(((3S,4R)-1-((5-chloropyridin-2-yl)sulfonyl)-4-hydroxy-4-(hydroxymethyl)pyrrolidin-3-yl)oxy)-2-fluorobenzonitrile] | 10 to 100 |
| CC(C)COc1cc(C#N)c(F)cc1O[C@H]1CN(S(=O)(=O)c2ccc(C(F)(F)F)nc2)C[C@@]1(O)CO [Example 183, 2-fluoro-4-(((3S,4R)-4-hydroxy-4-(hydroxymethyl)-1-((6-(trifluoromethyl)pyridin-3-yl)sulfonyl)pyrrolidin-3-yl)oxy)-5-isobutoxybenzonitrile] | 10 to 100 |
| O=S(=O)(c1ccc(Cl)cc1Cl)N1C[C@H](Oc2ccc(F)c(F)c2)[C@](O)(CO)C1 [Example 4, (3R,4S)-1-((2,4-dichlorophenyl)sulfonyl)-4-(3,4-difluorophenoxy)-3-(hydroxymethyl)pyrrolidin-3-ol] | 10 to 100 |
| N#Cc1cc(C(F)(F)F)ccc1S(=O)(=O)N1C[C@H](Oc2ccc(OC(F)(F)F)c(F)c2)[C@](O)(CO)C1 [Example 40, 2-(((3R,4S)-4-(3-fluoro-4-(trifluoromethoxy)phenoxy)-3-hydroxy-3-(hydroxymethyl)pyrrolidin-1-yl)sulfonyl)-5-(trifluoromethyl)benzonitrile] | 0.1 to 10 |
| COc1cc(Cl)ccc1O[C@H]1CN(S(=O)(=O)c2ccc(C(F)(F)F)cc2C#N)C[C@@]1(O)CO [Example 48, 2-(((3R,4S)-4-(4-chloro-2-methoxyphenoxy)-3-hydroxy-3-(hydroxymethyl)pyrrolidin-1-yl)sulfonyl)-5-(trifluoromethyl)benzonitrile] | 10 to 100 |
| N#Cc1cc(C(F)(F)F)ccc1S(=O)(=O)N1C[C@H](Oc2ccc(C#N)c(F)c2F)[C@](O)(CO)C1 [Example 15, 4-(((3S,4R)-1-((2-cyano-4-(trifluoromethyl)phenyl)sulfonyl)-4-hydroxy-4-(hydroxymethyl)pyrrolidin-3-yl)oxy)-2,3-difluorobenzonitrile] | 0.1 to 10 |
| N#Cc1ccc(O[C@H]2CN(S(=O)(=O)c3cccnc3C#N)C[C@@]2(O)CO)cc1F [Example 62, 3-(((3R,4S)-4-(4-cyano-3-fluorophenoxy)-3-hydroxy-3-(hydroxymethyl)pyrrolidin-1-yl)sulfonyl)picolinonitrile] | 0.1 to 10 |
| COc1ccc(O[C@H]2CN(S(=O)(=O)c3ccc(C(F)(F)F)cc3C#N)C[C@@]2(O)CO)cc1F [Example 43, 2-(((3R,4S)-4-(3-fluoro-4-methoxyphenoxy)-3-hydroxy-3-(hydroxymethyl)pyrrolidin-1-yl)sulfonyl)-5-(trifluoromethyl)benzonitrile] | 10 to 100 |
| CC(C)COc1cc(C#N)c(F)cc1O[C@H]1CN(S(=O)(=O)c2ccc(C#N)cc2)C[C@@]1(O)CO [Example 180, 4-(((3S,4R)-1-((4-cyanophenyl)sulfonyl)-4-hydroxy-4-(hydroxymethyl)pyrrolidin-3-yl)oxy)-2-fluoro-5-isobutoxybenzonitrile] | 0.1 to 10 |

Now from value to molecule:

| IC50 [nM] | SMILES |
| --- | --- |
| 0.1 to 10 | Cc1cc(C#N)ccc1S(=O)(=O)N1C[C@H](Oc2ccc(C#N)c(F)c2)[C@](O)(CO)C1 [Example 80, 4-(((3S,4R)-1-((4-cyano-2-methylphenyl)sulfonyl)-4-hydroxy-4-(hydroxymethyl)pyrrolidin-3-yl)oxy)-2-fluorobenzonitrile] |
| 10 to 100 | N#Cc1ccc(O[C@H]2CN(S(=O)(=O)c3ccc(Cl)cn3)C[C@@]2(O)CN)cc1 [Example 246, 4-(((3S,4S)-4-(aminomethyl)-1-((5-chloropyridin-2-yl)sulfonyl)-4-hydroxpyrrolidin-3-yl)oxy)benzonitrile] |
| 0.1 to 10 | CC(C)NC[C@]1(O)CN(S(=O)(=O)c2ccc(C(F)(F)F)cc2C#N)C[C@@H]1Oc1ccc(C#N)c(F)c1 [Example 239, 4-(((3S,4S)-1-((2-cyano-4-(trifluoromethyl)phenyl)sulfonyl)-4-hydroxy-4-((isopropylamino)methyl)pyrrolidin-3-yl)oxy)-2-fluorobenzonitrile, 2,2,2-trifluoroacetate] |
| 10 to 100 | N#Cc1ccc(S(=O)(=O)N2C[C@H](Oc3ccc(C#N)cc3OCC(F)(F)F)[C@](O)(CO)C2)cc1 [Example 172, 4-(((3S,4R)-1-((4-cyanophenyl)sulfonyl)-4-hydroxy-4-(hydroxymethyl)pyrrolidin-3-yl)oxy)-3-(2,2,2-trifluoroethoxy)benzonitrile] |
| 10 to 100 | N#Cc1cc(C(F)(F)F)ccc1S(=O)(=O)N1C[C@H](Oc2ccc(Cl)cc2)[C@@](O)(CO)C1 [Example 146, 2-(((3S,4S)-4-(4-chlorophenoxy)-3-hydroxy-3-(hydroxymethyl)pyrrolidin-1-yl)sulfonyl)-5-(trifluoromethyl)benzonitrile] |
| 10 to 100 | N#Cc1ccc(O[C@H]2CN(S(=O)(=O)c3ccc(F)cc3Br)C[C@]2(O)CO)cc1F [Example 144, 4-(((3S,4S)-1-((2-bromo-4-fluorophenyl)sulfonyl)-4-hydroxy-4-(hydroxymethyl)pyrrolidin-3-yl)oxy)-2-fluorobenzonitrile] |
| 10 to 100 | N#Cc1ccc(O[C@H]2CN(S(=O)(=O)c3ccc(C(F)(F)F)cc3)C[C@@]2(O)CO)cc1F [Example 70, 2-fluoro-4-(((3S,4R)-4-hydroxy-4-(hydroxymethyl)-1-((4-(trifluoromethyl)phenyl)sulfonyl)pyrrolidin-3-yl)oxy)benzonitrile] |
| 10 to 100 | C#Cc1ccccc1S(=O)(=O)N1C[C@H](Oc2ccc(C#N)c(F)c2)[C@](O)(CO)C1 [Example 93, 4-(((3S,4R)-1-((2-ethynylphenyl)sulfonyl)-4-hydroxy-4-(hydroxymethyl)pyrrolidin-3-yl)oxy)-2-fluorobenzonitrile] |
| 10 to 100 | Cc1ccc(S(=O)(=O)N2C[C@H](Oc3ccc(C#N)c(F)c3)[C@](O)(CO)C2)cc1F [Example 118, 2-fluoro-4-(((3S,4R)-1-((3-fluoro-4-methylphenyl)sulfonyl)-4-hydroxy-4-(hydroxymethyl)pyrrolidin-3-yl)oxy)benzonitrile] |
| 10 to 100 | N#Cc1ccc(O[C@H]2CN(S(=O)(=O)c3ccc(Cl)s3)C[C@@]2(O)CO)cc1F [Example 86, 4-(((3S,4R)-1-((5-chlorothiophen-2-yl)sulfonyl)-4-hydroxy-4-(hydroxymethyl)pyrrolidin-3-yl)oxy)-2-fluorobenzonitrile] |
| 10 to 100 | N#Cc1ccc(O[C@H]2CN(S(=O)(=O)c3ccc(C#CC4CC4)nc3)C[C@@]2(O)CO)cc1F [Example 226, 4-(((3S,4R)-1-((6-(cyclopropylethynyl)pyridin-3-yl)sulfonyl)-4-hydroxy-4-(hydroxymethyl)pyrrolidin-3-yl)oxy)-2-fluorobenzonitrile] |
| 10 to 100 | COc1cc(C#N)ccc1S(=O)(=O)N1C[C@H](Oc2ccc(C#N)c(F)c2)[C@](O)(CO)C1 [Example 104, 4-(((3S,4R)-1-((4-cyano-2-methoxyphenyl)sulfonyl)-4-hydroxy-4-(hydroxymethyl)pyrrolidin-3-yl)oxy)-2-fluorobenzonitrile] |
| 10 to 100 | Cc1cc(C(F)(F)F)ccc1S(=O)(=O)N1C[C@H](Oc2ccc(C#N)c(F)c2)[C@](O)(CO)C1 [Example 81, 2-fluoro-4-(((3S,4R)-4-hydroxy-4-(hydroxymethyl)-1-((2-methyl-4-(trifluoromethyl)phenyl)sulfonyl)pyrrolidin-3-yl)oxy)benzonitrile] |
| 10 to 100 | C[C@H](O)[C@]1(O)CN(S(=O)(=O)c2ccccc2C#N)C[C@@H]1Oc1ccc(C#N)c(F)c1 [Example 200, 4-(((3S,4R)-1-((2-cyanophenyl)sulfonyl)-4-hydroxy-4-((S)-1-hydroxyethyl)pyrrolidin-3-yl)oxy)-2-fluorobenzonitrile] |
